# Structures can show the parent of a compound that is named as a salt.
# Columns and labels:
# [1] = system: experimental mice with hyperglycaemia; assay: blood glucose value of mice with hyperglycaemia lead by Streptozocin; assay type: in vivo, mouse; conditions: Streptozocin mice serum
# Protocol: 100 male mice, weighting 25˜30 g, were given Streptozocin on the dosage of 180 mg/kg by intraperitoneal injection. taking blood from eye sockets of the survivals 72 hours later, using evaluate kit evaluated serum glucose, select 40 mice with hyperglycosemia whose serum glucose value is 18˜33 mmol/L, Which were randomly divided into 4 groups: Model group, Positive medicine Phenformin group, High and low dose of invented capsule group. All mice were intragastric administration 1 time each day in 10 days; Take another 10 mice as normal control group. All mice were fasting diet 12 hours after last administration, then taking blood from eye sockets, separating blood serum, using evaluate kit evaluated serum glucose value with Glucose enzymic method, then using t-value method to compare the significance with model group.
# [2] = system: experimental rats with hyperglycaemia; assay: blood glucose value of rats with hyperglycaemia lead by alloxan; assay type: in vivo, rat; conditions: alloxan rats serum
# Protocol: 160 male rats, weighting 200˜250 g, were given alloxan on the dosage of 200 mg/kg by intraperitoneal injection. taking blood from eye sockets of the survivals 72 hours later, using evaluate kit evaluated serum glucose, select 40 rats with hyperglycosemia whose serum glucose value is 20˜25 mmol/L, Which were randomly divided into 4 groups: Model group, Positive medicine Phenformin group, High and low dose of invented capsule group. All rats were intragastric administration 1 time each day in 10 days; Take another 10 mice as normal control group. All mice were fasting diet 12 hours after last administration, then taking blood from eye sockets, separating blood serum, using evaluate kit evaluated serum glucose value with Glucose enzymic method, then using t-value method to compare the significance with model group.
# [3] = 0.1 g/kg intragastric daily 10 days
smiles,measurement,setting,value
"[H]/N=C(/N)N/C(=N/[H])NCCc1ccccc1 [Phenformin, Phenformin Hydrochloride]",GLU After administration,[1]; [3],12.51 ± 6.93 mmol/L
same,GLU Before administration,[1]; baseline of 0.1 g/kg group,25.43 ± 3.93 mmol/L
same,GLU After administration,[2]; [3],14.52 ± 4.99 mmol/L
same,GLU Before administration,[2]; baseline of 0.1 g/kg group,22.72 ± 1.53 mmol/L

# Reference: patent US20050106276A1, “Pharmaceutical composition made from Chinese traditional medecine and method of producing thereof” (Jiangsu Kanion Pharmaceutial Co. Ltd., priority 2001, published 2005)
